What all share (format): cell-based
Test [1] addresses T1, Retinoic acid receptor RXR-beta (Homo sapiens) (UniProt P28702).
T1 sequence (whole entry): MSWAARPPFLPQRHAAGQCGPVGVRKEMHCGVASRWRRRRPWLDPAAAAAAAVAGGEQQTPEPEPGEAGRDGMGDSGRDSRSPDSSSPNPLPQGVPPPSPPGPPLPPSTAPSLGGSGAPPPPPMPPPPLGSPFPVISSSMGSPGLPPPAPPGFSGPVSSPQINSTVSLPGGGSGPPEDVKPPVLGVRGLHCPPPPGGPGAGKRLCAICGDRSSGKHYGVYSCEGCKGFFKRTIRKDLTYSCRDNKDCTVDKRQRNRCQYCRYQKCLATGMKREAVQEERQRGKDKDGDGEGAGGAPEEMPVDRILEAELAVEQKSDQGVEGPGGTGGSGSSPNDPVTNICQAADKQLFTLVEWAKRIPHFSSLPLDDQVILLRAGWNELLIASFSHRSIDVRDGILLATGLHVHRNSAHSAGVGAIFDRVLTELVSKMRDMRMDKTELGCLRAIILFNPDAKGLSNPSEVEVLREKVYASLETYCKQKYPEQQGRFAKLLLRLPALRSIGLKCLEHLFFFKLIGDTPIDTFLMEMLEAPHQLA
The test is described as follows: Agonist activity at Gal4-fused human RXR-beta transfected in human HeLa cells at 51 nM after 12 hrs by luciferase reporter gene assay relative to control. A general note: In a reporter assay the amount or activity of a reporter protein is the signal.

Test [2] deals with T1, Retinoic acid receptor RXR-beta (Homo sapiens). The test is described as follows: Agonist activity at Gal4-fused human RXR-beta transfected in human HeLa cells at 125 nM after 12 hrs by luciferase reporter gene assay relative to control.
The target in test [3] is T2, Retinoic acid receptor alpha (Mus musculus) (UniProt P11416).
T2 sequence (whole entry): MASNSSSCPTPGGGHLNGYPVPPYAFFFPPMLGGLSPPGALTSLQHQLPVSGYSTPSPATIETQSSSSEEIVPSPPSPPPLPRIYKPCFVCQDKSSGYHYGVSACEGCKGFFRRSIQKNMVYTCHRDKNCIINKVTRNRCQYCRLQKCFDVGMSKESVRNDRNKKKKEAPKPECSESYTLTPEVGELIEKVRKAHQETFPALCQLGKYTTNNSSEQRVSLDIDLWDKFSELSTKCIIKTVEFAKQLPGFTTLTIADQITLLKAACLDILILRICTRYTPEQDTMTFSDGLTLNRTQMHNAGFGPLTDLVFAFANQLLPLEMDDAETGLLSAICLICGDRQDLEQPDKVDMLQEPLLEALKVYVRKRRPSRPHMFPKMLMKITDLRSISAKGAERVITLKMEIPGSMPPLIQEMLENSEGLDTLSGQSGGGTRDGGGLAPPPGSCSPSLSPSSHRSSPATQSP
Kind of test: Agonist activity at Gal4-fused mouse RAR-alpha transfected in human HeLa cells at 1 uM after 12 hrs by luciferase reporter gene assay.

The target in test [4] is T1, Retinoic acid receptor RXR-beta (Homo sapiens). The test is described as follows: Agonist activity at Gal4-fused human RXR-beta transfected in human HeLa cells at 541 nM after 12 hrs by luciferase reporter gene assay relative to control.
Test [5] shares this target. Kind of test: Agonist activity at Gal4-fused human RXR-beta transfected in human HeLa cells at 875 nM after 12 hrs by luciferase reporter gene assay relative to control.
Test [6] concerns the target T2, Retinoic acid receptor alpha (Mus musculus). Kind of test: Antagonist activity at Gal4-fused mouse RAR-alpha transfected in human HeLa cells after 12 hrs by luciferase reporter gene assay.
The target of test [7] is T3, Retinoic acid receptor gamma (Mus musculus) (UniProt P18911).
T3 sequence (whole entry): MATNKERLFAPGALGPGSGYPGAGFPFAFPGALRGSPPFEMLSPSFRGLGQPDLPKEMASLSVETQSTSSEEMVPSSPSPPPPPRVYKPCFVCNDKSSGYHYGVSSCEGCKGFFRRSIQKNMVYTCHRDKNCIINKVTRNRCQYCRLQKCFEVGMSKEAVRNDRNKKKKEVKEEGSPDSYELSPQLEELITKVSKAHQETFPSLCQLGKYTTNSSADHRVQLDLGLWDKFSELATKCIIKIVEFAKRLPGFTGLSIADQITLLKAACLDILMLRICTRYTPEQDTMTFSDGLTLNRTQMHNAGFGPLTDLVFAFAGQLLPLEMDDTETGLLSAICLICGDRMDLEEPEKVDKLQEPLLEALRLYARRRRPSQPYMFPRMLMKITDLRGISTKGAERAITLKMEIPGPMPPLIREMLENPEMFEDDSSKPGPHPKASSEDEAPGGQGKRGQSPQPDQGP
The test is described as follows: Agonist activity at Gal4-fused mouse RAR-gamma transfected in human HeLa cells at 1 uM after 12 hrs by luciferase reporter gene assay.

Test [8] addresses T1, Retinoic acid receptor RXR-beta (Homo sapiens). Kind of test: Agonist activity at Gal4-fused human RXR-beta transfected in human HeLa cells after 12 hrs by luciferase reporter gene assay.
Test [9] has as its target T3, Retinoic acid receptor gamma (Mus musculus). The test is described as follows: Antagonist activity at Gal4-fused mouse RAR-gamma transfected in human HeLa cells after 12 hrs by luciferase reporter gene assay.
For test [10], the target named is T4, Retinoic acid receptor beta (Mus musculus) (UniProt P22605).
T4 sequence (whole entry): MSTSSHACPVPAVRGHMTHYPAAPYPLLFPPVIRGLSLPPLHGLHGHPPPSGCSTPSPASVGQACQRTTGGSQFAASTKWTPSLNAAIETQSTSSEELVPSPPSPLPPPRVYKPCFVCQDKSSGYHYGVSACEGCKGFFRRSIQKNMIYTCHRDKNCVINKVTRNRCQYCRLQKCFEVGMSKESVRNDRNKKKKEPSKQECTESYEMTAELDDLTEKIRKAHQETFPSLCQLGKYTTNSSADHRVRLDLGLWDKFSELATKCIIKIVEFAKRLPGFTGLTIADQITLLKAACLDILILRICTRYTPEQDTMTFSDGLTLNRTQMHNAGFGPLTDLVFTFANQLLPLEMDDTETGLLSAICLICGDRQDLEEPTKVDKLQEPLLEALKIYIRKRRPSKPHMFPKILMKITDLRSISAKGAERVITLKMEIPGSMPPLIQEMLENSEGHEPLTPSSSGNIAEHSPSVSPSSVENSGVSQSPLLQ
Kind of test: Antagonist activity at Gal4-fused mouse RAR-beta transfected in human HeLa cells after 12 hrs by luciferase reporter gene assay.

Test [11] concerns the target T4, Retinoic acid receptor beta (Mus musculus). Kind of test: Agonist activity at Gal4-fused mouse RAR-beta transfected in human HeLa cells at 1 uM after 12 hrs by luciferase reporter gene assay.
Test [12] has the same target. The test is described as follows: Agonist activity at Gal4-fused mouse RAR-beta transfected in human HeLa cells at >1 uM after 12 hrs by luciferase reporter gene assay.
The target is the same in test [13]. Kind of test: Agonist activity at Gal4-fused mouse RAR-beta transfected in human HeLa cells at 10 uM after 12 hrs by luciferase reporter gene assay.
In test [14] the target is T2, Retinoic acid receptor alpha (Mus musculus). The test is described as follows: Agonist activity at Gal4-fused mouse RAR-alpha transfected in human HeLa cells after 12 hrs by luciferase reporter gene assay.
Test [15] concerns the target T3, Retinoic acid receptor gamma (Mus musculus). Kind of test: Agonist activity at Gal4-fused mouse RAR-gamma transfected in human HeLa cells at 10 uM after 12 hrs by luciferase reporter gene assay.

Structures are written as SMILES. The source made the active and inactive calls. The calls are words filed in the database; no cut-off is given here.

As for `O=C(O)c1ccc(/C=C/c2ccc3c(-c4ccccc4)ccc(-c4ccccc4)c3c2)c(F)c1`, the fold change (FC) in test [1], in test [2], in test [4] and in test [5] was 15 in each case. In addition, the result in test [3], in [7] and in test [11] was inactive. Besides, the result in test [6], in [8], in test [9] and in test [10] was Active.
Regarding `O=C(O)c1ccc(/C=C/c2ccc3c(-c4ccccc4)ccc(-c4ccccc4)c3c2)cc1`, the fold change (FC) in test [1], in [2], in test [4] and in test [5] was 15 each time. Besides, the result in test [3], in [7] and in [11] was inactive. Besides, the outcome in test [6], in test [8], in [9] and in test [10] was Active.
As for `O=C(O)c1ccc(/C=C/c2ccc3c(-c4ccccc4)ccc(-c4ccccc4)c3c2)c(Br)c1`, the fold change (FC) in test [1], in test [2], in [4] and in [5] was 15 throughout. The result in test [3], in test [7] and in test [11] was inactive. Further, the result in [6], in test [8], in test [9] and in test [10] was Active.
On to `O=C(O)c1ccc(NC(=O)c2ccc3c(-c4ccccc4)ccc(-c4ccccc4)c3c2)cc1`, for which the outcome in test [12], in [13] and in test [15] was Active. For the same compound, the result in [14] was inactive.
As to `O=C(O)c1ccc(NC(=O)c2ccc3c(-c4ccccc4)ccc(-c4ccccc4)c3c2)c(F)c1`, the result in [13] and in test [15] was Active. The result in test [14] was inactive.
For `O=C(O)c1ccc(NC(=O)c2ccc3c(-c4ccccc4)ccc(-c4ccccc4)c3c2)c(Cl)c1`, the result in [13] and in test [15] was Active. Besides, the outcome in [14] was inactive.
Turning to `C/C(=C\c1ccc(C(=O)O)cc1)c1ccc2c(c1)C(C)(C)CCC2(C)C`, the fold change (FC) in test [1], in test [2], in [4] and in test [5] was 15 throughout.

The values above are taken from ChEMBL document CHEMBL3286114, “Dual RXR Agonists and RAR Antagonists Based on the Stilbene Retinoid Scaffold” (ACS Med Chem Lett, 2014).
